Data taken from patent US20150376216A1, “SUGAR-ANALOG PHOSPHORUS-CONTAINING HETEROCYCLES HAVING AN ANTI-METASTATIC ACTIVITY” (CENTRE NATIONAL DE LA RECHERCHE SCIENTIRIQUE, priority 2013, published 2015).

Legend:
Gli7 = experiment: MTT antiproliferative test, Gli7; type: cell-based; settings: Homo sapiens, read-out: IC50, inhibition of proliferation
Protocol: (§1) Several cancer cell lines were used for the in vivo or in vitro biological tests: • SNB75 is a human glioblastoma line derived from a primary culture, i.e. derived from a primary malignant cancer tumor. It forms part of the panel of 59 cancer lines referenced by the NCI. Its Cosmic reference number published by the Welcome Trust Sanger Institute is 905982. This line was supplied by a person (M.D. Ph.D of the department of “Radiation Oncology”, Stanford University Medical Center). It was cultured in Ham's F-12 and DMEM (1/1) supplemented with 10% fetal bovine serum. The experiments were performed with cells in the exponential growth phase. • Gli4 (or Gli4F11) and Gli7 are cultures of cancer strain cells derived from human glioblastomas (primary cultures). These lines are CD133^+, CD15^+ which are multipotent and tumorigenic in animals. They were established by J. P. Hugnot (INM INSERM U-1051 Eq. 4), and described in Guichet, P. O. et al, Glia 2013, 61(2), 225-239; • C6 is a rat glioblastoma line. It is referenced in the ATCC under the reference CCL-107. • MDAMB-435 is a melanoma line derived from a mammary melanoma. It forms part of the panel of 59 cancer lines referenced by the NCI. It is referenced at the ATCC under the reference HTB-129. It was cultured in Ham's F-12 and DMEM (1/1) supplemented with 10% fetal bovine serum. […]

MDAMB-435 cells = experiment: MDAMB-435 subcutaneous model; type: in vivo, mice
Protocol: A suspension of 1×10^6 MDAMB-435 cells in 100 μl of sterile PBS (phosphate-buffered saline, supplied by Fisher) was injected into each mouse (subcutaneous administration, with anesthesia, in the mammary gland of the left hind quarter). Once a control pregroup of three mice presented the first metastases (liver, intestine, ovary), the protocol was conducted with […] of eight mice. The five groups of mice were treated using one of the five formulations described below:
Group A: Treatment by injection of 100 μl of NaCl (control N° 1).
Group B: Treatment by injection of 100 to 150 μl according to the weight of the mice of formulation 2 not containing compound 4.2a (control N° 2).
Group C: Treatment with compound 4.2a at a rate of 10 mg/kg with volumes of 100 to 150 μl of formulation 2 depending on the weight of the mice.
Group D: Treatment with compound 4.2a at a rate of 5 mg/kg with volumes of 100 to 150 μl of formulation 2 depending on the weight of the mice.
Each batch was treated by intravenous injection into the caudal vein of 100 to 150 μl of solution (precision syringe and G25X1 needle ultrafine wall, VWR). Three injections per week for four weeks were performed. The mice were weighed at each injection. The mice were sacrificed after four weeks, and the tumors and organs (liver, kidney, spleen, brain, intestine, heart, muscles) were removed. A histological analysis was performed on these organs.

MDAMB-231 = experiment: MTT antiproliferative test, MDAMB-231; type: cell-based; settings: Homo sapiens, MDA-MB-231, read-out: IC50, inhibition of proliferation
Protocol: (§2) The lines MDAMB-435 and A431 are seeded at a density of 3000 cells per well in 96-well plates. After 24 hours, compounds 4.2a and 5.6d resuspended in 100% DMSO are added at concentrations of 0-0.001-0.010-0.1-1-10-50 μM for a final constant amount of DMSO of 0.3%. The cultures are maintained for a further 72 hours and an MTT colorimetric test is then performed. 100 μl of a solution of MTT at 5 mg/ml in PBS are added to the culture medium, which is left to incubate for 3 hours. The culture medium is removed and the cells are lyzed by adding 100 μL of a 4 mM HCl solvent, 0.1% Nondet P-40 (NP40) in isopropanol. The yellow tetrazolium MTT salt (3-(4,5-dimethylthiazol-2-yl)-2,5-diphenyl tetrazolium bromide), when it is reduced by the mitochondrial succinate dehydrogenase of active live cells, forms a blue-violet formazan product. The medium then changes from yellow to blue-violet. The intensity of this coloration at 590 nm is proportional to the number of live cells present during the test and gives an indication of the metabolic activity of these cells.
(§3) Table 1 gives the concentration values for 50% inhibition of proliferation (IC50) for compounds 4.2a and 5.6d on lines derived from bowel cancer (CaCo2), skin cancer (A431, MDAMB-435, B16F10), breast cancer (MDAMB-431), […] (HuH7), prostate cancer (DU145) and brain cancer (SNB75, Gli4, Gli7).

Acute in vivo toxicity = settings: healthy mice; 50, 25, 10, 5 and 1 mg/kg; maximum dose 50 mg/kg
Protocol: Studies of the acute toxicity of compounds 3.48a and 4.2a were performed on healthy mice for a concentration range of 50, 25, 10, 5 and 1 mg/kg.

SNB75 glioblastoma line = experiment: MTT antiproliferative test, SNB75; type: cell-based; settings: Homo sapiens, SNB-75, read-out: IC50, inhibition of proliferation
Protocol: as §1

GLi4 = experiment: MTT antiproliferative test, Gli4; type: cell-based; settings: Homo sapiens, read-out: IC50, inhibition of proliferation
Protocol: as §1

DU145 = experiment: MTT antiproliferative test, DU145; type: cell-based; settings: Homo sapiens, DU-145, read-out: IC50, inhibition of proliferation
Protocol: as §2, §3

A431 line = experiment: MTT antiproliferative test, A431; type: cell-based, human; settings: Homo sapiens, A-431; A431; 72 hours, MTT; read-out: IC50, inhibition of proliferation
Protocol: as §2, §3

HuH7 = experiment: MTT antiproliferative test, HuH7; type: cell-based; settings: Homo sapiens, Huh-7, read-out: IC50, inhibition of proliferation
Protocol: as §2, §3

[1] = 10 and 5 mg/kg i.v. (groups C and D), three injections per week for four weeks

Q: Which IC50 (Gli7) does the source give for `CC1(C)O[C@H]2[C@@H]([C@H]3COC(C)(C)O3)O[P@](=O)(c3ccccc3)[C@@H](OC(=O)c3ccccc3)[C@H]2O1` [Compound 4.2a, (SPRSRR)-3-benzoate-4-(2,2-dimethyl-[1,3]dioxolan-4-yl)-2,2-dimethyl-2-oxo-2-phenyl-tetrahydro-2λ^5-[1,2]oxaphosphinane] here?
A: 2.71 µM

Q: And the “Metastases in the ovaries (FIG. 4)” value (MDAMB-435 cells; 10 and 5 mg/kg (groups C and D))?
A: absence of metastases

Q: What about the “Number of metastases per mouse (FIG. 5)” value (MDAMB-435 cells; 10 and 5 mg/kg (groups C and D), controls predominantly more than two) of the same molecule?
A: none of the mice treated with compound 4.2a (groups C and D) developed more than two metastases

Q: And the “Metastatic development (size of metastases)” value (MDAMB-435 cells; [1])?
A: a reduction in metastatic development (small-sized metastases)

Q: What about the Number of metastases (MDAMB-435 cells; [1]) of the same molecule?
A: a large reduction in the number of metastases

Q: What about the “Mass distribution of secondary tumors (FIG. 6)” value (MDAMB-435 cells; as a function of the treatment conditions) of the same molecule?
A: reduced the development of metastases

Q: And the IC50 (MDAMB-231)?
A: 1.16 µM

Q: What about the “Mortality, acute toxicity” value (Acute in vivo toxicity) of the same molecule?
A: No mortality was observed

Q: What about the IC50 (SNB75 glioblastoma line) of the same molecule?
A: 9.54 µM

Q: And the IC50 (GLi4)?
A: 6.81 µM

Q: What about the IC50 (DU145) of the same molecule?
A: > 100 µM

Q: What about the IC50 (A431 line) of the same molecule?
A: 4.35 µM

Q: What about the IC50 (HuH7) of the same molecule?
A: > 100 µM
